# Experimental data taken from ChEMBL document CHEMBL5634113, “Synthesis, cytotoxic activity evaluation and mechanistic investigation of novel 3,7-diarylsubstituted 6-azaindoles” (Eur J Med Chem, 2023).
# Structures can show the parent of a compound that is named as a salt. Active and inactive are the calls of the source. The calls are words filed in the database; no cut-off is given here.
# How the values were obtained:
# [1] = Cytotoxicity against human AG1523 cells assessed as inhibition of cell growth incubated for 72 hrs by MTT assay; format: toxicity, cell-based
# [2] = test system: A-431; experiment: Cytotoxicity against human A-431 cells assessed as inhibition of cell growth incubated for 72 hrs by MTT assay; format: functional, cell-based; details: A-431, 72 h
# [3] = test system: HT-1080; experiment: Cytotoxicity against human HT-1080 cells assessed as inhibition of cell growth incubated for 72 hrs by MTT assay; format: functional, cell-based; details: HT-1080, 72 h
# [4] = test system: MCF7; experiment: Cytotoxicity against human MCF7 cells assessed as inhibition of cell growth incubated for 72 hrs by MTT assay; format: functional, cell-based; details: MCF7, 72 h
# [5] = test system: MDA-MB-231; experiment: Cytotoxicity against human MDA-MB-231 cells assessed as inhibition of cell growth incubated for 72 hrs by MTT assay; format: functional, cell-based; details: MDA-MB-231, 72 h
# [6] = test system: A-431; experiment: Genotoxicity in human A-431 cells assessed as upregulation of MDM2 total protein level at IC50 measured after 0 to 24 hrs by multiplex immunoassay; format: functional, cell-based; details: time 0-24 hrs
# [7] = molecular target: Mitogen-activated protein kinase 1 (Homo sapiens) (UniProt P28482); experiment: Inhibition of ERK2 phosphorylation at Thr185/Tyr187 residues in human A-431 cells at IC50 measured after 0 to 24 hrs by multiplex immunoassay; format: cell-based; details: time 0-24 hrs
# [8] = test system: A-431; experiment: Induction of cell cycle arrest in human A-431 cells assessed as accumulation of cells at G2/M phase at 100 nM incubated for 24 hrs by RNase/PI staining based flow cytometry analysis (reference value: 15.66%); format: functional
# [9] = test system: A-431; experiment: Genotoxicity in human A-431 cells assessed as upregulation of phosphorylated Chk1 at Ser345 residue protein level at IC50 measured after 0 to 24 hrs by multiplex immunoassay; format: functional, cell-based; details: time 0-24 hrs
# [10] = test system: A-431; experiment: Cytotoxicity against human A-431 cells assessed as increase in mitotic nuclei measured after 6 to 24 hrs by DAPI staining based analysis; format: functional, cell-based; details: time 6-24 hrs
# [11] = test system: A-431; experiment: Genotoxicity in human A-431 cells assessed as upregulation of ATR total protein level at IC50 measured after 0 to 24 hrs by multiplex immunoassay; format: functional, cell-based; details: time 0-24 hrs
# [12] = molecular target: Signal transducer and activator of transcription 3 (Homo sapiens) (UniProt P40763); experiment: Inhibition of STAT3 phosphorylation at Ser727 residue in human A-431 cells at IC50 measured after 0 to 24 hrs by multiplex immunoassay; format: cell-based; details: time 0-24 hrs
# [13] = molecular target: Cyclin-dependent kinase inhibitor 1 (Homo sapiens) (UniProt P38936); experiment: Activation of p21 waf1 in human A-431 cells assessed as increase in p21 waf1 protein level at IC50 measured after 0 to 24 hrs by Western blot analysis; format: cell-based; details: filed as activator, time 0-24 hrs
# [14] = test system: A-431; experiment: Genotoxicity in human A-431 cells assessed as upregulation of p21 total protein level at IC50 measured after 0 to 24 hrs by multiplex immunoassay; format: functional, cell-based; details: time 0-24 hrs
# [15] = test system: A-431; experiment: Genotoxicity in human A-431 cells assessed as upregulation of phosphorylated p53 at Ser15 residue protein level at IC50 measured after 0 to 24 hrs by multiplex immunoassay; format: functional, cell-based; details: time 0-24 hrs
# [16] = test system: A-431; experiment: Induction of cell cycle arrest in human A-431 cells assessed as accumulation of cells at S phase at 100 nM incubated for 24 hrs by RNase/PI staining based flow cytometry analysis (reference value: 43.35%); format: functional
# [17] = molecular target: Mitogen-activated protein kinase 3 (Homo sapiens) (UniProt P27361); experiment: Inhibition of ERK1 phosphorylation at Thr202/Tyr204 residues in human A-431 cells at IC50 measured after 0 to 24 hrs by multiplex immunoassay; format: cell-based; details: time 0-24 hrs
# [18] = molecular target: Dual specificity mitogen-activated protein kinase kinase 1 (Homo sapiens) (UniProt Q02750); experiment: Inhibition of MEK1 phosphorylation at Ser217/Ser221 residues in human A-431 cells at IC50 measured after 0 to 24 hrs by multiplex immunoassay; format: cell-based; details: time 0-24 hrs
# [19] = test system: A-431; experiment: Genotoxicity in human A-431 cells assessed as upregulation of phosphorylated Chk2 at Thr68 residue protein level at IC50 measured after 0 to 24 hrs by multiplex immunoassay; format: functional, cell-based; details: time 0-24 hrs
# [20] = test system: A-431; experiment: Induction of cell cycle arrest in human A-431 cells assessed as accumulation of cells at G0/G1 phase at 100 nM incubated for 24 hrs by RNase/PI staining based flow cytometry analysis (reference value: 40.98%); format: functional
# [21] = molecular target: Cellular tumor antigen p53 (Homo sapiens) (UniProt P04637); experiment: Activation of p53 in human A-431 cells assessed as increase in p53 phosphorylation at Ser15 residue at IC50 measured after 0 to 24 hrs by Western blot analysis; format: cell-based; details: filed as activator, time 0-24 hrs
# [22] = molecular target: Ribosomal protein S6 kinase alpha-1 (Homo sapiens) (UniProt Q15418); experiment: Inhibition of p90 RSK phosphorylation at Ser380 residue in human A-431 cells at IC50 measured after 0 to 24 hrs by multiplex immunoassay; format: cell-based; details: time 0-24 hrs
# [23] = test system: A-431; experiment: Induction of cell cycle arrest in human A-431 cells assessed as accumulation of cells at Sub-diploid phase at 100 nM incubated for 24 hrs by RNase/PI staining based flow cytometry analysis (reference value: 1.82%); format: functional
# Chain of Signal transducer and activator of transcription 3 (Homo sapiens) (P40763 whole entry): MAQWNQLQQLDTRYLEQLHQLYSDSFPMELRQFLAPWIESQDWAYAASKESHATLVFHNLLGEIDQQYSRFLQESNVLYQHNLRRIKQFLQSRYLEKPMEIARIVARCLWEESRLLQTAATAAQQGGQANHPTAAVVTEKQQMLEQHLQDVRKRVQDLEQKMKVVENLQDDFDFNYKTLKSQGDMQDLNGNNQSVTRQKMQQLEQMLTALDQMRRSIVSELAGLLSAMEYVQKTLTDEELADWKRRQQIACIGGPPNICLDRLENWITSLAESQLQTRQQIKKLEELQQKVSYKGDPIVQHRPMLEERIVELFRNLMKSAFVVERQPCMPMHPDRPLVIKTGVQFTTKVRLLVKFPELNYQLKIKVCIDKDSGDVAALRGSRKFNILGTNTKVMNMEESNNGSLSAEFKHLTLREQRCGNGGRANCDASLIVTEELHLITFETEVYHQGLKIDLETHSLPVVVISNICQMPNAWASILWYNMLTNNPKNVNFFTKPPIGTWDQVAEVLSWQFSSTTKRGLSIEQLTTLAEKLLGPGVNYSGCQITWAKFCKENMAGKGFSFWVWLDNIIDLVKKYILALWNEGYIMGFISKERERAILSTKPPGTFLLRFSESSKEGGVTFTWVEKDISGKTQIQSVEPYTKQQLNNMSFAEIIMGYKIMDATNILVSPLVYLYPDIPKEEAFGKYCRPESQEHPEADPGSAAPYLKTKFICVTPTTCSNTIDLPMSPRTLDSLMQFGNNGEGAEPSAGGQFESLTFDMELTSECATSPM
# Chain of Cyclin-dependent kinase inhibitor 1 (Homo sapiens) (P38936 whole entry): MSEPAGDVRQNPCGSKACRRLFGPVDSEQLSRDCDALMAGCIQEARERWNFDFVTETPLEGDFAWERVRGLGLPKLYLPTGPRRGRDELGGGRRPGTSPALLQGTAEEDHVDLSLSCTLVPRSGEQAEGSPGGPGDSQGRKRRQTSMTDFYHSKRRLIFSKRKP
# Chain of Dual specificity mitogen-activated protein kinase kinase 1 (Homo sapiens) (Q02750 whole entry): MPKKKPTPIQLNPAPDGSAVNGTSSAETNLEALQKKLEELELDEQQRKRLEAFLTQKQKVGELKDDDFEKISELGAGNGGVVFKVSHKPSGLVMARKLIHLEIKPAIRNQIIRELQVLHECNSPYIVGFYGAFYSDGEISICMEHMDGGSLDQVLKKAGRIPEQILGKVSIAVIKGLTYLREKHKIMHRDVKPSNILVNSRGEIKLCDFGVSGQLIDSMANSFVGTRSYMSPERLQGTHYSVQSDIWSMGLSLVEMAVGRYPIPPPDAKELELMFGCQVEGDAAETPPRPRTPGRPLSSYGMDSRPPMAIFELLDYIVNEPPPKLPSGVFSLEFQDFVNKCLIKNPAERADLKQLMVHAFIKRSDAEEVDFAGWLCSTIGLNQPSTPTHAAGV
# Chain of Mitogen-activated protein kinase 3 (Homo sapiens) (P27361 whole entry): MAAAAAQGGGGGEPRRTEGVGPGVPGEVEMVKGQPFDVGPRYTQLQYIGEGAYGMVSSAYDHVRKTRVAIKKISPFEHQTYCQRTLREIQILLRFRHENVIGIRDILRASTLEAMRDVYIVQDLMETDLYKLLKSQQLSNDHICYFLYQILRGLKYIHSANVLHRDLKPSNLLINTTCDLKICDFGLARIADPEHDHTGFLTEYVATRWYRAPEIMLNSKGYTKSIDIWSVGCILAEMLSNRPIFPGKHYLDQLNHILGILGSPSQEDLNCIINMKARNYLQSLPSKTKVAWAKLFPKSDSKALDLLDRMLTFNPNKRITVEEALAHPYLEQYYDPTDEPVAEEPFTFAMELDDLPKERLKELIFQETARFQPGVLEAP
# Chain of Ribosomal protein S6 kinase alpha-1 (Homo sapiens) (Q15418 whole entry): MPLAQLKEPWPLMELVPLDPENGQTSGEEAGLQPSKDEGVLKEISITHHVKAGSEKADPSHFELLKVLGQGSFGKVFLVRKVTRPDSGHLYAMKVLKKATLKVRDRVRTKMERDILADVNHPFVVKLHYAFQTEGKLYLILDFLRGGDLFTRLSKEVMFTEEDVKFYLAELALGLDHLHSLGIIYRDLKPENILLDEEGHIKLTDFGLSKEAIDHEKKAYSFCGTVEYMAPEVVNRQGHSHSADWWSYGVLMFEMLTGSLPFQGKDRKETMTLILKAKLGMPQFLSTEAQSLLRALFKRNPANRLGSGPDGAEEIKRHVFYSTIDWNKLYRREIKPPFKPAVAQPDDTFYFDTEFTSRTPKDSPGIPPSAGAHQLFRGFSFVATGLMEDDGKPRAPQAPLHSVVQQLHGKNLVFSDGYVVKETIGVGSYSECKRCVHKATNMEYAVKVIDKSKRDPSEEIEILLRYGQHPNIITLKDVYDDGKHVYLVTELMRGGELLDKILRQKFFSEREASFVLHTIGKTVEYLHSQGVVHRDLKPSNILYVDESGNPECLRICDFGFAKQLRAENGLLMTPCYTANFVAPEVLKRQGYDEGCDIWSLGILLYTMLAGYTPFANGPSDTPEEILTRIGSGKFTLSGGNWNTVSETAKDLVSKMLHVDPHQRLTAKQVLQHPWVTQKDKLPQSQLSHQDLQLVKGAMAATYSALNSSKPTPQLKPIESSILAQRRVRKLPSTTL
# Chain of Cellular tumor antigen p53 (Homo sapiens) (P04637 whole entry, looked up): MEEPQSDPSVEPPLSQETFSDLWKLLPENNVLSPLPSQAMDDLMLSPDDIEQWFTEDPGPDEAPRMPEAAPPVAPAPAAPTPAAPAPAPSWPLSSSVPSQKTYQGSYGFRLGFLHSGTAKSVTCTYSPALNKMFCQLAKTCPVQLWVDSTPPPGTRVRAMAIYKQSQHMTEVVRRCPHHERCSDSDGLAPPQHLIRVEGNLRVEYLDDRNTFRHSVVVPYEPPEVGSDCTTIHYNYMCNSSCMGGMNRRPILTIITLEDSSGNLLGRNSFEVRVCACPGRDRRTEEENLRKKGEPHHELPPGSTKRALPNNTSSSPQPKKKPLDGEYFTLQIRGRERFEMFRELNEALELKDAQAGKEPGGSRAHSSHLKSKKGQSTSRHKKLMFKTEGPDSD
# Chain of Mitogen-activated protein kinase 1 (Homo sapiens) (P28482 whole entry): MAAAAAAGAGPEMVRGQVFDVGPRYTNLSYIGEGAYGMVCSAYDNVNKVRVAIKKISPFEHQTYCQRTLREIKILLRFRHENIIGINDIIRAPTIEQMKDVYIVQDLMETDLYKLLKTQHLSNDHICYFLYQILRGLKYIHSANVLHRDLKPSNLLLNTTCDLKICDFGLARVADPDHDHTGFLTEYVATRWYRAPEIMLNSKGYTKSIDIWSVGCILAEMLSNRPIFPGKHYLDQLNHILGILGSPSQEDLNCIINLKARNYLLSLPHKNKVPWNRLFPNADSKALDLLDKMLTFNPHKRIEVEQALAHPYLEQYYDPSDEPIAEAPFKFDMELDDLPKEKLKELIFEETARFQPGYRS
SMILES,IC50 at 72 h [1],IC50 [2],IC50 [3],IC50 [4],IC50 [5],other results
COc1ccc(Cn2cc(-c3cccc(F)c3)c3ccnc(-c4cccc([N+](=O)[O-])c4)c32)cc1,> 100 µM,> 100 µM,> 100 µM,> 100 µM,> 100 µM,
COc1ccc(Cn2cc(-c3ccccc3)c3ccnc(-c4ccc(Cl)cc4)c32)cc1,> 100 µM,10.8 µM,25.8 µM,40.8 µM,> 100 µM,
COc1ccc(Cn2cc(-c3cccc(F)c3)c3ccnc(-c4ccc(Cl)cc4)c32)cc1,> 100 µM,14.3 µM,> 100 µM,73.3 µM,> 100 µM,
COc1ccc(-c2nccc3c(-c4cccc(F)c4)c[nH]c23)c(OC)c1,56.3 µM,0.013 µM,0.014 µM,0.14 µM,0.018 µM,Activity [6]: Active; inhibition [7]: Active; Activity [8]: 54.04%; Activity [9]: Active; Activity [10]: Active; Activity [11]: Active; inhibition [12]: Active; Activity [13]: Active; Activity [14]: Active; Activity [15]: Active; Activity [16]: 12.97%; inhibition [17]: Active; inhibition [18]: Active; Activity [19]: Active; Activity [20]: 33%; Activity [21]: Active; inhibition [22]: Active; Activity [23]: 29.86%
Clc1ccc(-c2nccc3c(-c4ccccc4)c[nH]c23)cc1,> 100 µM,0.02 µM,0.056 µM,0.35 µM,0.051 µM,Activity [8]: 39.73%; Activity [16]: 39.69%; Activity [20]: 20.59%; Activity [23]: 33.54%
O=[N+]([O-])c1cccc(-c2nccc3c(-c4cccc(F)c4)c[nH]c23)c1,49 µM,2.5 µM,0.82 µM,4.39 µM,5.12 µM,
O=[N+]([O-])c1cccc(-c2nccc3c(-c4ccccc4)c[nH]c23)c1,> 100 µM,2.6 µM,3.06 µM,3.34 µM,4.39 µM,
COc1ccc(Cn2cc(-c3cccc(F)c3)c3ccnc(-c4ccccc4)c32)cc1,> 100 µM,9 µM,14.1 µM,12.9 µM,49.8 µM,
COc1ccc(Cn2cc(-c3ccccc3)c3ccnc(-c4ccc(OC)cc4OC)c32)cc1,> 100 µM,6.2 µM,7.67 µM,10.3 µM,15.8 µM,
COc1ccc(Cn2cc(-c3cccc(F)c3)c3ccnc(-c4ccc(OC)cc4OC)c32)cc1,> 100 µM,5.32 µM,8.61 µM,11.4 µM,18.1 µM,
COc1ccc(-c2nccc3c(-c4ccccc4)c[nH]c23)c(OC)c1,79.8 µM,0.012 µM,0.012 µM,0.1 µM,0.017 µM,Activity [8]: 63.32%; Activity [16]: 10.27%; Activity [20]: 26.41%; Activity [23]: 40.02%
COc1ccc(Cn2cc(-c3ccccc3)c3ccnc(-c4ccccc4)c32)cc1,> 100 µM,9.89 µM,13.1 µM,13.4 µM,22.5 µM,
c1ccc(-c2c[nH]c3c(-c4ccccc4)nccc23)cc1,85.1 µM,0.54 µM,0.79 µM,2.48 µM,1.51 µM,
COc1cccc2c1C(=O)c1c(O)c3c(c(O)c1C2=O)C[C@@](O)(C(=O)CO)C[C@@H]3O[C@H]1C[C@H](N)[C@H](O)[C@H](C)O1 [DOXORUBICIN HYDROCHLORIDE],,0.009 µM,0.007 µM,0.144 µM,0.096 µM,
Fc1cccc(-c2c[nH]c3c(-c4ccc(Cl)cc4)nccc23)c1,78.6 µM,0.11 µM,0.087 µM,0.41 µM,0.13 µM,
CC(=O)c1ccc(-c2nccc3c(-c4ccccc4)c[nH]c23)cc1,> 100 µM,0.1 µM,0.52 µM,0.64 µM,0.27 µM,Activity [8]: 64.95%; Activity [16]: 20.32%; Activity [20]: 14.74%; Activity [23]: 39.37%
COc1ccc(Cn2cc(-c3cccc(F)c3)c3ccnc(-c4ccc(C(C)=O)cc4)c32)cc1,> 100 µM,13 µM,13.4 µM,9.7 µM,89.2 µM,
CC(=O)c1ccc(-c2nccc3c(-c4cccc(F)c4)c[nH]c23)cc1,> 100 µM,0.42 µM,0.47 µM,0.81 µM,0.42 µM,
Fc1cccc(-c2c[nH]c3c(-c4ccccc4)nccc23)c1,> 100 µM,1.6 µM,3.15 µM,2.29 µM,3.65 µM,
COc1ccc(Cn2cc(-c3ccccc3)c3ccnc(-c4ccc(C(C)=O)cc4)c32)cc1,> 100 µM,> 100 µM,41.6 µM,24.5 µM,> 100 µM,
COc1ccc(Cn2cc(-c3ccccc3)c3ccnc(-c4cccc([N+](=O)[O-])c4)c32)cc1,> 100 µM,> 100 µM,> 100 µM,> 100 µM,> 100 µM,
